Results reported in patent publication US20230321089A1, “COMBINATION OF CABOTEGRAVIR AND LEVONORGESTREL” (ViiV Healthcare Company, priority 2020, published 2023).

Tests used:
[1] = tested on: HIV-1 strains; details: broad range of HIV-1 strains; cited from earlier work
[2] = set-up: species or system male Sprague Dawley rats; details: rat, in vivo
Method: To prepare the combination product, LNG and LNG-b suspensions were added to Cabotegravir suspensions at 500 mg/mL to achieve a final Cabotegravir concentration of approximately 200 mg/mL and a final LNG and LNGb concentration of […], using a solution of 2.0% Mannitol in water to adjust the final concentrations to target. Concentrations of P338 and PEG3350 were at 4.5%. The resulting suspensions were flushed with nitrogen, stoppered (FM457 stopper), and sealed. The suspensions were terminally sterilized by gamma irradiation at a minimum dose of 25 kGy.
The pharmacokinetics of co-suspensions of Cabotegravir and LNG/LNG-b, prepared as described above, were evaluated in male Sprague Dawley rats. The formulations that were tested included: • i. 200 mg/mL Cabotegravir and 40 mg/mL LNG—0.2 microns • ii. 200 mg/mL Cabotegravir 40 mg/mL LNG—1 micron • iii. 200 mg/mL Cabotegravir and 40 mg/mL LNGb—0.2 microns • iv. 200 mg/mL Cabotegravir 40 mg/mL LNGb—1 micron
Rats were administered co-suspensions either intramuscularly or subcutaneously at target doses of 10 mg/kg Cabotegravir and […] LNG or LNGb. […] FIG. 2 is a comparison of Levonorgestrel blood concentration pharmacokinetic profiles after intramuscular vs. subcutaneous administration. The average particle size of LNG for these formulations was 0.2 microns in diameter. […] Furthermore, FIG. 3 is a comparison of LNG and LNG-b co-formulated with Cab.

SMILES: C[C@H]1CO[C@@H]2Cn3cc(C(=O)NCc4ccc(F)cc4F)c(=O)c(O)c3C(=O)N12 [Cabotegravir, N-((2,4-Difluorophenyl)methyl)-6-hydroxy-3-methyl-5,7-dioxo-2,3,5,7,11,11a hexahydro(1,3)oxazolo(3,2-a)pyrido(1,2-d)pyrazine-8-carboxamide]
- potency [1]: subnanomolar

SMILES: C#C[C@]1(O)CC[C@H]2[C@@H]3CCC4=CC(=O)CC[C@@H]4[C@H]3CC[C@@]21CC [LNG, Levonorgestrel]
- Levonorgestrel blood concentration pharmacokinetic profile: intramuscular vs. subcutaneous administration [2]: does not appear to be a significant impact

SMILES: C#C[C@]1(OC(=O)CCC)CC[C@H]2[C@@H]3CCC4=CC(=O)CC[C@@H]4[C@H]3CC[C@@]21CC [LNGb, Levonorgestrel-butanoate]
- Cmax compared with LNG ([2]; sc): lower
- apparent half-life compared with LNG ([2]; sc): slightly longer
